Measurements reported in US10858335B2 (Rigel Pharmaceuticals, Inc., priority 2014, dated 2020).

These compounds were tested on GDF8 signaling (p-SMAD-3 (Ser423/425)) (assay: AlphaScreen SureFire SMAD3 (p-Ser423/425) assay, GDF8-stimulated cells (GDF pSMAD)). Settings: MPC11; GDF8-stimulated; p-SMAD3 AlphaScreen; read-out: GDF pSMAD (MPC11) (inhibition of GDF8 signaling).
Format: cell-based

Compound	IC50 [µM]
Cc1cc(-c2ncccc2-c2ccn3ncc(C(=O)NC4CC5CCC(C4)N5C)c3c2)ccc1F (stereo not drawn) [compound 715, exo-5-(2-(4-Fluoro-3-methylphenyl)pyridin-3-yl)-N-(8-methyl-8-azabicyclo[3.2.1]octan-3-yl)pyrazolo[1,5-a]pyridine-3-carboxamide]	2.03

Same assay, conditions: Mus musculus, MPC-11, GDF8-stimulated pSMAD3, MPC11; tested as the salt form given; read-out: GDF pSMAD (MPC11) (μM), inhibition of GDF8 signaling

IC50 [µM]	Compound
0.175	Cc1cc(-c2ncccc2-c2ccc3ncnc(N)c3c2)ccc1F [compound 1021, 6-(2-(4-fluoro-3-methylphenyl)pyridin-3-yl)quinazolin-4-amine]

Same assay, conditions: Mus musculus, MPC-11, MPC11; GDF8-stimulated; p-SMAD3 AlphaScreen; read-out: GDF pSMAD (MPC11) (inhibition of GDF8 signaling)

IC50 [µM]	Compound
1.7	COCCOc1cccc(-c2ncccc2-c2ccc3ncnc(N)c3c2)c1 [compound 482, 6-(2-(3-(2-Methoxyethoxy)phenyl)pyridin-3-yl)quinazolin-4-amine]
0.584	Cc1cc(-c2ncccc2-c2ccc3ncc(C(=O)NCCN4CCOC4=O)n3c2)ccc1F [compound 817, 6-(2-(4-Fluoro-3-methylphenyl)pyridin-3-yl)-N-(2-(2-oxooxazolidin-3-yl)ethyl)imidazo[1,2-a]pyridine-3-carboxamide]
0.15	COC(=O)c1cnc2ccc(-c3cccnc3-c3ccc(F)c(C)c3)cn12 [compound 685, Methyl 6-(2-(4-fluoro-3-methylphenyl)pyridin-3-yl)imidazo[1,2-a]pyridine-3-carboxylate]
0.162	N#Cc1cnc2ccc(-c3cccnc3-c3cccc(C4CC4)c3)cn12 [compound 559, 6-(2-(3-Cyclopropylphenyl)pyridin-3-yl)imidazo[1,2-a]pyridine-3-carbonitrile]
6.6	CC(C)c1cccc(-c2ncccc2-c2ccc3ncnc(N)c3c2)c1 [compound 478, 6-(2-(3-Isopropylphenyl)pyridin-3-yl)quinazolin-4-amine]
10	Fc1cc(F)c(-c2ncccc2-c2ccc3nccnc3n2)cc1F [compound 741, 6-(2-(2,4,5-Trifluorophenyl)pyridin-3-yl)pyrido[2,3-b]pyrazine]
0.313	Clc1cccc(-c2ncccc2-c2ccc3ncsc3c2)c1 [compound 668, 6-(2-(3-Chlorophenyl)pyridin-3-yl)benzo[d]thiazole]
0.55	Cc1cc(-c2ncccc2-c2ccn3ncc(C(=O)NCC4CCN(C)CC4)c3c2)ccc1F [compound 656, 5-(2-(4-Fluoro-3-methylphenyl)pyridin-3-yl)-N-((1-methylpiperidin-4-yl)methyl)pyrazolo[1,5-a]pyridine-3-carboxamide]
0.439	Cc1cc(-c2ncccc2-c2ccc3ncc(C#N)n3c2)ccc1F [compound 557, 6-(2-(4-Fluoro-3-methylphenyl)pyridin-3-yl)imidazo[1,2-a]pyridine-3-carbonitrile]
5.86	c1ccc(-c2ncccc2-c2ccc3ncnn3c2)cc1 [compound 781, 6-(2-Phenylpyridin-3-yl)-[1,2,4]triazolo[1,5-a]pyridine]
7.64	COc1ccnc2ccc(-c3cccnc3-c3cccc(Cl)c3)cc12 [compound 841, 6-(2-(3-Chlorophenyl)pyridin-3-yl)-4-methoxyquinoline]
5.89	Fc1cnc(-c2cccc(C(F)(F)F)c2)c(-c2ccn3ncnc3c2)c1 [compound 863, 7-(2-(3-((Difluoro-13-methyl)-12-fluoranyl)phenyl)-5-fluoropyridin-3-yl)-[1,2,4]triazolo[1,5-a]pyridine]
1.18	Cc1cc(-c2ncccc2-c2ccc3ncc(C(=O)NCC4CCN(C)CC4)n3c2)ccc1F [compound 651, 6-(2-(4-Fluoro-3-methylphenyl)pyridin-3-yl)-N-((1-methylpiperidin-4-yl)methyl)imidazo[1,2-a]pyridine-3-carboxamide]
0.164	Cc1cc(-c2ncccc2-c2ccnc(Nc3cccc(S(N)(=O)=O)c3)n2)ccc1F [compound 907, 3-((4-(2-(4-Fluoro-3-methylphenyl)pyridin-3-yl)pyrimidin-2-yl)amino)benzenesulfonamide]
18	Cc1cn2cc(-c3cccnc3-c3cccc(C(F)(F)F)c3)ccc2n1 [compound 534]
2.3	Clc1cccc(-c2ncccc2-c2ccc3ncccc3c2)c1 [compound 699, 6-(2-(3-Chlorophenyl)pyridin-3-yl)quinolone]
1.04	Cc1cc(-c2ncccc2-c2ccc3ncc(C(=O)NCCCn4ccnc4)n3c2)ccc1F [compound 653, N-(3-(1H-Imidazol-1-yl)propyl)-6-(2-(4-fluoro-3-methylphenyl)pyridin-3-yl)imidazo[1,2-a]pyridine-3-carboxamide]
0.326	Cc1cc(-c2ncccc2-c2ccc3ncc(C(=O)NCCCN(C)C)n3c2)ccc1F [compound 608, N-(3-(Dimethylamino)propyl)-6-(2-(4-fluoro-3-methylphenyl)pyridin-3-yl)imidazo[1,2-a]pyridine-3-carboxamide]
0.688	Clc1ccc(Cl)c(-c2ncccc2-c2ccc3ncsc3c2)c1 [compound 869, 6-(2-(2,5-Dichlorophenyl)pyridin-3-yl)benzo[d]thiazole]
0.179	[2H]C([2H])([2H])c1cccc(-c2ncccc2-c2ccc3nccn3c2)c1 [compound 600, 6-(2-(3-(Methyl-d3)phenyl)pyridin-3-yl)imidazo[1,2-a]pyridine]
0.426	Cc1cccc(-c2ncccc2-c2ccc3nccnc3c2)c1 [compound 540, 6-(2-(m-Tolyl)pyridin-3-yl)quinoxaline]

More lines, now with the values behind:

Compound	IC50 [µM]
Cc1cc(-c2ncc(NCc3ccccn3)cc2-c2ccc3nccnc3c2)ccc1F [compound 246, 6-(4-Fluoro-3-methylphenyl)-N-(pyridin-2-ylmethyl)-5-(quinoxalin-6-yl)pyridin-3-amine]	1.29
Cc1cc(-c2ncccc2-c2ccc3ncc(C(=O)N[C@H]4CN5CCC4CC5)n3c2)ccc1F [compound 791, (R)-6-(2-(4-Fluoro-3-methylphenyl)pyridin-3-yl)-N-(quinuclidin-3-yl)imidazo[1,2-a]pyridine-3-carboxamide]	5.37
Cc1cc(-c2ncccc2-c2ccc3ncn(C)c(=O)c3c2)ccc1F [compound 340, 6-(2-(4-Fluoro-3-methylphenyl)pyridin-3-yl)-3-methylquinazolin-4(3H)-one]	0.464
Cc1cc(-c2ncc(NC(=O)c3ccncc3)cc2-c2ccc3ncsc3c2)ccc1F [compound 314, N-(5-(Benzo[d]thiazol-6-yl)-6-(4-fluoro-3-methylphenyl)pyridin-3-yl)isonicotinamide]	5.34
Cc1cnc(-c2ccc(F)c(C)c2)c(-c2ccc3[nH]ncc3c2)c1 [Compound 11, 5-(2-(4-Fluoro-3-methylphenyl)-5-methylpyridin-3-yl)-1H-indazole]	0.595
Cc1cccc(-c2ncccc2-c2ccc3ncn(C)c(=O)c3c2)c1 [compound 341, 3-Methyl-6-(2-(m-tolyl)pyridin-3-yl)quinazolin-4(3H)-one]	0.26
CS(=O)(=O)Nc1cnc(-c2cccc(C3CC3)c2)c(-c2ccc3[nH]ncc3c2)c1 [Compound 31, N-(6-(3-Cyclopropylphenyl)-5-(1H-indazol-5-yl)pyridin-3-yl) methanesulfonamide]	1.9
CCCC(=O)Nc1cnc(-c2ccc(F)c(C)c2)c(-c2ccc3ncsc3c2)c1 [compound 316, N-(5-(Benzo[d]thiazol-6-yl)-6-(4-fluoro-3-methylphenyl)pyridin-3-yl)butyramide]	6.39
N#Cc1cc(-c2ncccc2-c2cnc3[nH]ncc3c2)ccc1F [Compound 158, 5-(3-(1H-Pyrazolo[3,4-b]pyridin-5-yl)pyridin-2-yl)-2-fluorobenzonitrile]	1.86
COc1ccc(F)c(-c2ncccc2-c2ccc3ncnc(N)c3c2)c1 [compound 473, 6-(2-(2-Fluoro-5-methoxyphenyl)pyridin-3-yl)quinazolin-4-amine]	0.292
Cc1cc(-c2ncccc2-c2ccc3ncn(C)c3c2)ccc1F [Compound 187, 6-(2-(4-Fluoro-3-methylphenyl)pyridin-3-yl)-1-methyl-1H-benzo[d]imidazole]	0.228
Cc1cc(-c2ncc(NCc3ccc(O)c(F)c3)cc2-c2ccc3ncsc3c2)ccc1F [compound 369, 4-(((5-(Benzo[d]thiazol-6-yl)-6-(4-fluoro-3-methylphenyl)pyridin-3-yl)amino)methyl)-2-fluorophenol]	0.193
Fc1ccc(-c2ncccc2-c2ccc3cn[nH]c3c2)cc1 [Compound 101, 6-(2-(4-Fluorophenyl)pyridin-3-yl)-1H-indazole]	11.2
O=c1nc[nH]c2cc(-c3cccnc3-c3cccc(C4CC4)c3)ccc12 [compound 350, 7-(2-(3-cyclopropylphenyl)pyridin-3-yl)quinazolin-4(1H)-one]	0.347
Cc1c(F)cccc1-c1ncccc1-c1ccc2ncnc(N)c2c1 [compound 468, 6-(2-(3-Fluoro-2-methylphenyl)pyridin-3-yl)quinazolin-4-amine]	7.82
Cc1cc(-c2ncccc2-c2ccc3ncsc3c2)ccc1F [Compound 159, 6-(2-(4-Fluoro-3-methylphenyl)pyridin-3-yl)benzo[d]thiazole]	0.13
Cc1cc(-c2ncc(Cl)cc2-c2ccc3[nH]ncc3c2)ccc1F [Compound 9, 5-(5-Chloro-2-(4-fluoro-3-methylphenyl)pyridin-3-yl)-1H-indazole]	5.13
COc1cc(CNc2cnc(-c3ccc(F)c(C)c3)c(-c3ccc4ncsc4c3)c2)cc(OC)c1O [compound 366, 4-(((5-(Benzo[d]thiazol-6-yl)-6-(4-fluoro-3-methylphenyl)pyridin-3-yl)amino)methyl)-2,6-dimethoxyphenol]	0.226
Cc1cc(-c2ncccc2-c2ccc3ncn(CCN4CCN(C)CC4)c3c2)ccc1F [Compound 37, 6-(2-(4-Fluoro-3-methylphenyl)pyridin-3-yl)-1-(2-(4-methylpiperazin-1-yl)ethyl)-1H-benzo[d]imidazole]	18.1
Cc1cc(-c2ncccc2-c2ccc3cnc(-c4ccncc4)n3c2)ccc1F [compound 282, 6-(2-(4-Fluoro-3-methylphenyl)pyridin-3-yl)-3-(pyridin-4-yl)imidazo[1,5-a]pyridine]	19.4
